A word on the IC50: it is the concentration at which inhibition is half-maximal.

For eleven compounds, IC50 results are on record in US20240218022A1, “ANTI-VISTA MACROCYCLIC PEPTIDES AND COMPOSITIONS” (BRISTOL-MYERS SQUIBB COMPANY, priority 2022, published 2024).

Positions of bridges follow the written chain, without caps; N, C: chain ends. Non-standard residues stand in square brackets, D forms with d. Residues, ends and D or L forms follow the SMILES beside them. ξ: configuration not given here. NMeIle(3ξ) = CCC(C)[C@H](NC)C(=O)O; NMeD = CN[C@@H](CC(=O)O)C(=O)O; NMeL = CN[C@@H](CC(C)C)C(=O)O; Ahp(2) = CCCCC[C@H](N)C(=O)O; NMeNle = CCCC[C@H](NC)C(=O)O; Tle = CC(C)(C)[C@H](N)C(=O)O; NHexGly = CCCCCCNCC(=O)O; Nle = CCCC[C@H](N)C(=O)O; Orn = NCCC[C@H](N)C(=O)O

The assay deals with T1, mouse VISTA (mVISTA) (Mus musculus, UniProt Q9D659).
T1 construct: expressed in transfected cells; host or cells: Human embryonic kidney 293T cells
T1 sequence (Q9D659 33-308): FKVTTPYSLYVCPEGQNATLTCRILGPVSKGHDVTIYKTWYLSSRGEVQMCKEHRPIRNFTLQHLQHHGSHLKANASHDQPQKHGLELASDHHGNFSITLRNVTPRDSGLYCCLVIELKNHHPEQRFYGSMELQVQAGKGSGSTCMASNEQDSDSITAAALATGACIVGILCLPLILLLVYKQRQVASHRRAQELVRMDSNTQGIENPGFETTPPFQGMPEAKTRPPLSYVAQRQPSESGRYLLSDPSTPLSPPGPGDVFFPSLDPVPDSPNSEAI
Nature of the assay: Cell-Based Binding High-Content Assay For mVISTA (HC CBA mVISTA). The conditions noted are these: read-out: HC CBA mVISTA IC50. Put shortly: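 This high-content binding assay uses HEK293T cells expressing murine VISTA, measuring displacement of 2 nM biotinylated peptide by fluorescent streptavidin imaging. IC50 values come from four-parameter logistic fitting.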
For the compound `CCCCCCN1CC(=O)N[C@@H](Cc2ccc(O)cc2)C(=O)N[C@@H](CCCC)C(=O)N[C@@H](CC(=O)O)C(=O)N[C@@H](CCCNC(=N)N)C(=O)N[C@@H](CC(C)C)C(=O)N[C@@H](CCCCC)C(=O)N2CCC[C@H]2C(=O)N[C@@H](C(C)C)C(=O)N[C@@H](CC(=O)O)C(=O)N[C@H](C(=O)N[C@@H](CO)C(N)=O)CSCC(=O)N[C@@H](Cc2ccccc2)C(=O)N[C@@H](Cc2c[nH]c3ccccc23)C(=O)N[C@@H](CC(=O)O)C1=O` [Example 1366] ({CH2CO}-FWD[NHexGly]Y[Nle]DRL[Ahp(2)]PVDCS-NH2; thioether N-14), the IC50 is 11.6 nM.

In the case of `CCCCCCN1CC(=O)N[C@@H](Cc2ccc(O)cc2)C(=O)N[C@@H](CCCC)C(=O)N[C@@H](CC(N)=O)C(=O)N[C@@H](CCCNC(=N)N)C(=O)N(C)[C@@H](C(C)CC)C(=O)N[C@@H](CCCCC)C(=O)N2CCC[C@H]2C(=O)N[C@@H](C(C)C)C(=O)N[C@@H](CC(=O)O)C(=O)N[C@H](C(=O)NCC(=O)O)CSCC(=O)N[C@@H](Cc2ccccc2)C(=O)N[C@@H](Cc2c[nH]c3ccccc23)C(=O)N[C@@H](CC(=O)O)C1=O` (some centres unmarked) [Example 1367] ({CH2CO}-FWD[NHexGly]Y[Nle]NR[NMeIle(3ξ)][Ahp(2)]PVDCG-OH; thioether N-14), the IC50 turned out to be 11.1 nM.

In the case of `CCCCCCN1CC(=O)N[C@@H](Cc2ccc(O)cc2)C(=O)N[C@@H](CCCC)C(=O)N[C@@H](CC(N)=O)C(=O)N[C@@H](CCCNC(=N)N)C(=O)N(C)[C@@H](CC(=O)O)C(=O)N[C@@H](CCCCC)C(=O)N2CCC[C@H]2C(=O)N[C@@H](C(C)C)C(=O)N[C@@H](CC(=O)O)C(=O)N[C@H](C(=O)NCC(=O)O)CSCC(=O)N[C@@H](Cc2ccccc2)C(=O)N[C@@H](Cc2c[nH]c3ccccc23)C(=O)N[C@@H](CC(=O)O)C1=O` [Example 1368] ({CH2CO}-FWD[NHexGly]Y[Nle]NR[NMeD][Ahp(2)]PVDCG-OH; thioether N-14), the IC50 worked out at 37 nM.

With `CCCCCCN1CC(=O)N[C@@H](Cc2ccc(O)cc2)C(=O)N[C@@H](CCCC)C(=O)N[C@@H](CC(N)=O)C(=O)N[C@@H](CCCNC(=N)N)C(=O)N(C)[C@@H](CC(C)C)C(=O)N[C@@H](CCCCC)C(=O)N2CCC[C@H]2C(=O)N[C@@H](C(C)C)C(=O)N[C@@H](CC(=O)O)C(=O)N[C@H](C(=O)NCC(=O)O)CSCC(=O)N[C@@H](Cc2ccccc2)C(=O)N[C@@H](Cc2c[nH]c3ccccc23)C(=O)N[C@@H](CC(=O)O)C1=O` [Example 1369] ({CH2CO}-FWD[NHexGly]Y[Nle]NR[NMeL][Ahp(2)]PVDCG-OH; thioether N-14), the IC50 is 3.5 nM.

As to `CCCCCCN1CC(=O)N[C@@H](Cc2ccc(O)cc2)C(=O)N[C@@H](CCCC)C(=O)N[C@@H](CC(N)=O)C(=O)N[C@@H](CCCNC(=N)N)C(=O)N(C)[C@@H](CC(C)C)C(=O)N[C@@H](CCCCC)C(=O)N2CCC[C@H]2C(=O)N[C@@H](C(C)C)C(=O)N[C@@H](CC(=O)O)C(=O)N[C@H](C(=O)N[C@@H](CO)C(=O)O)CSCC(=O)N[C@@H](Cc2ccccc2)C(=O)N[C@@H](Cc2c[nH]c3ccccc23)C(=O)N[C@@H](CC(=O)O)C1=O` [Example 1370] ({CH2CO}-FWD[NHexGly]Y[Nle]NR[NMeL][Ahp(2)]PVDCS-OH; thioether N-14), the IC50 was found to be 18.7 nM.

Turning to `CCCCCCN1CC(=O)N[C@@H](Cc2ccc(O)cc2)C(=O)N[C@@H](CCCC)C(=O)N[C@@H](CC(N)=O)C(=O)N[C@@H](CCCNC(=N)N)C(=O)N(C)[C@@H](CCCC)C(=O)N[C@@H](CCCCC)C(=O)N2CCC[C@H]2C(=O)N[C@@H](C(C)(C)C)C(=O)N[C@@H](CC(=O)O)C(=O)N[C@H](C(=O)N[C@@H](CC(=O)O)C(N)=O)CSCC(=O)N[C@@H](Cc2ccccc2)C(=O)N[C@@H](Cc2c[nH]c3ccccc23)C(=O)N[C@@H](CC(=O)O)C1=O` [Example 1371] ({CH2CO}-FWD[NHexGly]Y[Nle]NR[NMeNle][Ahp(2)]P[Tle]DCD-NH2; thioether N-14), the IC50 stood at 36.6 nM.

As for `CCCCCCN1CC(=O)N[C@@H](Cc2ccc(O)cc2)C(=O)N[C@@H](CCCC)C(=O)N[C@@H](CC(=O)O)C(=O)N[C@@H](CCCN)C(=O)N(C)[C@@H](CCCC)C(=O)N[C@@H](CCCCC)C(=O)N2CCC[C@H]2C(=O)N[C@@H](C(C)(C)C)C(=O)N[C@@H](CC(=O)O)C(=O)N[C@H](C(=O)N[C@@H](CC(=O)O)C(N)=O)CSCC(=O)N[C@@H](Cc2ccccc2)C(=O)N[C@@H](Cc2c[nH]c3ccccc23)C(=O)N[C@@H](CC(=O)O)C1=O` [Example 1372] ({CH2CO}-FWD[NHexGly]Y[Nle]D[Orn][NMeNle][Ahp(2)]P[Tle]DCD-NH2; thioether N-14), the IC50 is 16.4 nM.

For `CCCCCCN1CC(=O)N[C@@H](Cc2ccc(O)cc2)C(=O)N[C@@H](CCCC)C(=O)N[C@@H](CC(N)=O)C(=O)N[C@@H](CCCN)C(=O)N(C)[C@@H](CCCC)C(=O)N[C@@H](CCCCC)C(=O)N2CCC[C@H]2C(=O)N[C@@H](C(C)(C)C)C(=O)N[C@@H](CC(=O)O)C(=O)N[C@H](C(=O)N[C@@H](CC(=O)O)C(N)=O)CSCC(=O)N[C@@H](Cc2ccccc2)C(=O)N[C@@H](Cc2c[nH]c3ccccc23)C(=O)N[C@@H](CC(=O)O)C1=O` [Example 1373] ({CH2CO}-FWD[NHexGly]Y[Nle]N[Orn][NMeNle][Ahp(2)]P[Tle]DCD-NH2; thioether N-14), the IC50 stood at 14.8 nM.

As to `CCCCCCN1CC(=O)N[C@@H](Cc2ccc(O)cc2)C(=O)N[C@@H](CCCC)C(=O)N[C@@H](CC(N)=O)C(=O)N[C@@H](CCCN)C(=O)N(C)[C@@H](CCCC)C(=O)N[C@@H](CCCCC)C(=O)N2CCC[C@H]2C(=O)N[C@@H](C(C)(C)C)C(=O)N[C@@H](CO)C(=O)N[C@H](C(=O)N[C@@H](CC(=O)O)C(N)=O)CSCC(=O)N[C@@H](Cc2ccccc2)C(=O)N[C@@H](Cc2c[nH]c3ccccc23)C(=O)N[C@@H](CC(=O)O)C1=O` [Example 1374] ({CH2CO}-FWD[NHexGly]Y[Nle]N[Orn][NMeNle][Ahp(2)]P[Tle]SCD-NH2; thioether N-14), the IC50 is 24.9 nM.

Consider `CCCCCCN1CC(=O)N[C@@H](Cc2ccc(O)cc2)C(=O)N[C@@H](CCCC)C(=O)N[C@@H](CC(=O)O)C(=O)N[C@@H](CCCNC(=N)N)C(=O)N(C)[C@@H](CCCC)C(=O)N[C@@H](CCCCC)C(=O)N2CCC[C@H]2C(=O)N[C@@H](C(C)(C)C)C(=O)N[C@@H](CO)C(=O)N[C@H](C(=O)N[C@@H](CC(=O)O)C(N)=O)CSCC(=O)N[C@@H](Cc2ccccc2)C(=O)N[C@@H](Cc2c[nH]c3ccccc23)C(=O)N[C@@H](CC(=O)O)C1=O` [Example 1375] ({CH2CO}-FWD[NHexGly]Y[Nle]DR[NMeNle][Ahp(2)]P[Tle]SCD-NH2; thioether N-14), for which the IC50 came out at 42.5 nM.

As for `CCCCCCN1CC(=O)N[C@@H](Cc2ccc(O)cc2)C(=O)N[C@@H](CCCC)C(=O)N[C@@H](CC(=O)O)C(=O)N[C@@H](CCCN)C(=O)N(C)[C@@H](CCCC)C(=O)N[C@@H](CCCCC)C(=O)N2CCC[C@H]2C(=O)N[C@@H](C(C)(C)C)C(=O)N[C@@H](CO)C(=O)N[C@H](C(=O)N[C@@H](CC(=O)O)C(N)=O)CSCC(=O)N[C@@H](Cc2ccccc2)C(=O)N[C@@H](Cc2c[nH]c3ccccc23)C(=O)N[C@@H](CC(=O)O)C1=O` [Example 1376] ({CH2CO}-FWD[NHexGly]Y[Nle]D[Orn][NMeNle][Ahp(2)]P[Tle]SCD-NH2; thioether N-14), the IC50 worked out at 36.6 nM.
